For test [1], the target named is UDP-galactopyranose mutase (Mycobacterium tuberculosis, UniProt P9WIQ1). The experiment in a line: Inhibitors of Mycobacterium tuberculosis UDP-galactopyranose mutase (UGM) enzyme Measured in Biochemical System Using Plate Reader - 2105-02_Inhibitor_Dose_CherryPick_Activity. [Related pubchem assays (depositor defined):AID504439].
Test [2] in a line: cytotoxicity in HMLE control line with eGFP shRNA, dose response, counter-screen for HMLE_sh_ECad selective toxicity project, cell-based, HMLE_sh_eGFP, luminescence (AID 463074).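 Further: HMLE human mammary epithelial cells expressing control shRNA against eGFP.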 It is filed as functional, Homo sapiens. A general note: The purpose of a counterscreen is to sort out artefacts and off-target activity.
In a further test the target is T1, Estrogen receptor (Homo sapiens, UniProt P03372).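 Further: potency for inhibiting coactivator peptide recruitment to the receptor.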
T1 sequence (P03372 whole entry): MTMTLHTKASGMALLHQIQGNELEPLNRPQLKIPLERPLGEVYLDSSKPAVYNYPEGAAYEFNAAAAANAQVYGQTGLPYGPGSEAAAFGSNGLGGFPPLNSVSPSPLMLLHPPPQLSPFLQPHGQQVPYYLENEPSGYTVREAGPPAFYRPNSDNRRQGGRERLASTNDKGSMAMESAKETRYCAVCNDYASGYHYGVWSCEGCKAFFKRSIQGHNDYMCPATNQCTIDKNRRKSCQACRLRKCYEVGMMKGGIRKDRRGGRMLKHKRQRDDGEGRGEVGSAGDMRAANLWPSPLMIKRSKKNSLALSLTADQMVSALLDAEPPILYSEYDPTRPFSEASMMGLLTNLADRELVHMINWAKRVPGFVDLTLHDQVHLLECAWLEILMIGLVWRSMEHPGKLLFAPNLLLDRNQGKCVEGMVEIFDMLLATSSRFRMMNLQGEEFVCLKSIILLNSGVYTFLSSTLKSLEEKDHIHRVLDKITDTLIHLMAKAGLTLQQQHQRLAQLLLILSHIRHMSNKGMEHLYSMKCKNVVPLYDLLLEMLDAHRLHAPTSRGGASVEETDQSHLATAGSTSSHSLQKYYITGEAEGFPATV

A short description of test [3]: inhibitors of SNCA 5'UTR-driven reporter translation, confirmation, H4 neuroglioma cells, luminescence (AID 1988). Format: functional, cell-based.
The nature of test [4]: Luminescence Cell-Based Dose Response HTS to Identify Inhibitors of 5'UTR Stem-Loop Driven Prion Protein mRNA Translation in H4 Neuroglioblastoma Cells. [Related pubchem assays: 1827 (Project Summary), 1813 (Primary HTS)]. Format: functional.
Test [5] can be described thus: inhibitors of firefly luciferase expression or activity, dose response, H4 neuroglioma cells, luminescence (AID 1990). Format: functional, cell-based.
The nature of test [6]: A Cell Based Secondary Assay To Explore Cytotoxicity of Compounds that Sensitize Mycobacterium Tuberculosis to Beta-Lactam Antibiotics. Format: functional.
Test [7] in a line: Luminescence Cell-Based Dose Retest to Confirm Inhibitors of Cancer Stem Cells. [Related pubchem assays (depositor defined):AID2717, AID2721]. Format: functional. The conditions noted are these: Homo sapiens.
In the next test the test system is Candida albicans. The experiment in a line: growth inhibition of resistant C. albicans, dose response, CaCi-8, fluconazole, Alamar Blue, dry powder (AID 488807). Format: functional, organism-based. (Resazurin is reduced to fluorescent resorufin, in cell work by metabolically active cells.)
For test [8], the target named is T2, Dual specificity protein phosphatase 6 (Rattus norvegicus, UniProt Q64346). Format: functional.
T2 sequence (Q64346 whole entry): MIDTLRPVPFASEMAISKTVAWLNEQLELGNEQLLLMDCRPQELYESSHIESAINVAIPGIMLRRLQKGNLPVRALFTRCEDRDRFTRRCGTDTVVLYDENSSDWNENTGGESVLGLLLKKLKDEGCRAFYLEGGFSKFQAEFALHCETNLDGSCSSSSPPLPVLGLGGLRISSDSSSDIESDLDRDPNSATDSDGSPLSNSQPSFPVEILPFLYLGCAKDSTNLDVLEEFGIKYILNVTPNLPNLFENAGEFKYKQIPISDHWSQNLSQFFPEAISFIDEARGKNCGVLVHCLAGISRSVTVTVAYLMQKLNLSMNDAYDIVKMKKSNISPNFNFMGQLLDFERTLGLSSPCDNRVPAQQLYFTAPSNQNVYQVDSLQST
Test [9] concerns the target Heat shock 70 kDa protein 1A (Homo sapiens, UniProt P0DMV8). The experiment in a line: Hsp70 inhibitors, SAR follow-up, biochemical, fluorescence polarization (AID 1072).
The target in the next test is T3, Cysteine protease ATG4B (Homo sapiens, UniProt Q9Y4P1).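 Further: Fluorescence-based dose-response confirmation assay measuring inhibition of ATG4B activity.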
T3 sequence (Q9Y4P1 whole entry): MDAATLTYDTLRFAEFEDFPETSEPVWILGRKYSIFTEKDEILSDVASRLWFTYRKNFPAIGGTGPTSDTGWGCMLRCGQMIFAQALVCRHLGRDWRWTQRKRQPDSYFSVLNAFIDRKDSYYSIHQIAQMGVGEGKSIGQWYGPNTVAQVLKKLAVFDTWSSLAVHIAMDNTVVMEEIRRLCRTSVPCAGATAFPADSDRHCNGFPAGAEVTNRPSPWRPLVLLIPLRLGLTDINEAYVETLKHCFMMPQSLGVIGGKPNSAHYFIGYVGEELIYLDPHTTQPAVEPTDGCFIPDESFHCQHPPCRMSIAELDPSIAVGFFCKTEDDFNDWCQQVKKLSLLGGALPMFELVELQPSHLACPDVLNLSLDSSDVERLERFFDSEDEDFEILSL
It is filed as functional.

Test [10] addresses T2, Dual specificity protein phosphatase 6.
Test [11] deals with T4, Tyrosine-protein phosphatase non-receptor type 7 (Homo sapiens, UniProt P35236).
T4 sequence (P35236 whole entry): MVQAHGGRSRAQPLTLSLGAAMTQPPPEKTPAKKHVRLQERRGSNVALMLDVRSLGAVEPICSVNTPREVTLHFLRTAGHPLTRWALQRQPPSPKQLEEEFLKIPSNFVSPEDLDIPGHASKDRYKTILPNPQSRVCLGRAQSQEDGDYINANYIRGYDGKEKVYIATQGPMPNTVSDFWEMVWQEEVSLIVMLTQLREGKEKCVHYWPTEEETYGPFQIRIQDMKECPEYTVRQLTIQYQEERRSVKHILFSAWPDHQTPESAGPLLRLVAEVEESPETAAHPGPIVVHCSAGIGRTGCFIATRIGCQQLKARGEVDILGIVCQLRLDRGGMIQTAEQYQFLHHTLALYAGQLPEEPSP
It is filed as functional.

The target of the next test is T5, Bcl-2-like protein 10 (Homo sapiens, UniProt Q9HD36).
T5 sequence (Q9HD36 whole entry): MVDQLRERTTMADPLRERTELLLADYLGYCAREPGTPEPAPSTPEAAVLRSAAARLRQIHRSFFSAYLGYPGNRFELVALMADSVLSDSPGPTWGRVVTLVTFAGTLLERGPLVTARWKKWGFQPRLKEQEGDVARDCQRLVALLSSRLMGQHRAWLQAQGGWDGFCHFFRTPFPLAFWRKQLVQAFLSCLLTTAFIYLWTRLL
The experiment in a line: Biochemical TR3 FP assay of Bcl-B inhibitor potency, EC50 (AID 1243). Format: functional.

The target of test [12] is Heat shock cognate 71 kDa protein (Homo sapiens, UniProt P11142). The experiment in a line: In Vitro Hsc70 Dose Response Fluorescence Polarization Assay. [Related pubchem assays: 1072 ]. (In general: Polarisation of emitted light reports the rotation of a fluorescent probe.)
Sequence of Heat shock cognate 71 kDa protein (P11142 whole entry): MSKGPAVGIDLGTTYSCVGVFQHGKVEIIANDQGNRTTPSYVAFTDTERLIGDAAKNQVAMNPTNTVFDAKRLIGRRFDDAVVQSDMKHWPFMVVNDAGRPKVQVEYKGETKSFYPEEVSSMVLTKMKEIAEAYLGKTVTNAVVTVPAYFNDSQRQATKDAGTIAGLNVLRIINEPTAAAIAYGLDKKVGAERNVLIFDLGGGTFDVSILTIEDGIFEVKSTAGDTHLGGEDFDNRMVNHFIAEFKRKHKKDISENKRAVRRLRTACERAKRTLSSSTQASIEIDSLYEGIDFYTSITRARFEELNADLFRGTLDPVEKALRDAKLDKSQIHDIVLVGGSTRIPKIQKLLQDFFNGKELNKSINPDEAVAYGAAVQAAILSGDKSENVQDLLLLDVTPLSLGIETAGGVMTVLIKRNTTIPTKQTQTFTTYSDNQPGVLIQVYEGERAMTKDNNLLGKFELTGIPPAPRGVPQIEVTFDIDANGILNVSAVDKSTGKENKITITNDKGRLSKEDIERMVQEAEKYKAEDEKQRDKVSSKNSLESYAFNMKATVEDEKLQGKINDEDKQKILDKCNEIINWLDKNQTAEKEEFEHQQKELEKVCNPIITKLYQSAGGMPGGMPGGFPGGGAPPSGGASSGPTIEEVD
For test [13], the target named is Dual specificity protein phosphatase 3 (Homo sapiens, UniProt P51452). The experiment in a line: VHR1 inhibitor Ki determination, SAR follow-up, biochemical, colorimetric (AID 2004).
Sequence of Dual specificity protein phosphatase 3 (P51452 whole entry): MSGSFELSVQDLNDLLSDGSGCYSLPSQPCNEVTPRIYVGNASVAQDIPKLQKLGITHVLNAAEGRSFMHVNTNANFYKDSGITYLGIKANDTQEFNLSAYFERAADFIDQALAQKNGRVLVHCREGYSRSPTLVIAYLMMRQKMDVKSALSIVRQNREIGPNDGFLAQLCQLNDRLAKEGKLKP
In another test the target is Phospholipase A2 (Homo sapiens, UniProt P04054). It is filed as functional.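 Further: confirmatory dose-response counterscreen on phospholipase A2, testing hits that came from an ultra-high-throughput screen for ATG4B inhibitors.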
Sequence of Phospholipase A2 (P04054 whole entry): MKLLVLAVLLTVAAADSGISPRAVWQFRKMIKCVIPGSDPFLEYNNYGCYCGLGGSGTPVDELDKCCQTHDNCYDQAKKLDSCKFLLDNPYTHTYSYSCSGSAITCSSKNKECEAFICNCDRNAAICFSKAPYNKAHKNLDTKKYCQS
In test [14] the target is Glyceraldehyde-3-phosphate dehydrogenase (Homo sapiens, UniProt P04406).
Test [15] concerns the target T6, Endoribonuclease toxin MazF (Escherichia coli K-12, UniProt P0AE70).
T6 sequence (P0AE70 whole entry): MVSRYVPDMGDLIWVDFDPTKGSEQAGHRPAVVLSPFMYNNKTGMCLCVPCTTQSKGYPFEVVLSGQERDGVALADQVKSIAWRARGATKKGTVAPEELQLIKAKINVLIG
The experiment in a line: fluorescent RNA oligo signal without MazF, dose response, counter-screen for MazEF activator project, biochemical, fluorescence, single-stranded RNase substrate (AID 588502). It is filed as functional.

For another test, the target named is Keap1/Nrf2 (Homo sapiens, UniProt Q14145). The experiment in a line: Keap1-Nrf2 protein-protein interaction inhibitors, dose response, biochemical, fluorescence polarization, cherry-picked samples (AID 588683).
Sequence of Keap1/Nrf2 (Q16236 whole entry): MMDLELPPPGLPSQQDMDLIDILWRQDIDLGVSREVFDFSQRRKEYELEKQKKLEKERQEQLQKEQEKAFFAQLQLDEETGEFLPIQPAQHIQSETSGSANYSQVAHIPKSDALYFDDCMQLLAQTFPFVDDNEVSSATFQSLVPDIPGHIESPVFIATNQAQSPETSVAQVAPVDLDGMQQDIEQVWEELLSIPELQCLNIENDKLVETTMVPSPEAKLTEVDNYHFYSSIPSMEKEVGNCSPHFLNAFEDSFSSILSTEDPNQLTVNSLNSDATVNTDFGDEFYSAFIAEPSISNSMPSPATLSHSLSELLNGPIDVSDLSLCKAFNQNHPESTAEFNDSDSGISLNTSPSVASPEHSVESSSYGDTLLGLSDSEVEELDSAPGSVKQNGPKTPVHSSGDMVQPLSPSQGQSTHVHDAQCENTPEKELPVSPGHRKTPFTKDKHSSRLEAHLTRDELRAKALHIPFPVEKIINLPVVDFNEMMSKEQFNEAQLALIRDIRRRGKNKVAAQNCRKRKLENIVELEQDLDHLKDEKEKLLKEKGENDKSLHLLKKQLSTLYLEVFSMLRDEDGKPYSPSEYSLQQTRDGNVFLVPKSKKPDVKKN
Sequence of Keap1/Nrf2 (Q14145 whole entry): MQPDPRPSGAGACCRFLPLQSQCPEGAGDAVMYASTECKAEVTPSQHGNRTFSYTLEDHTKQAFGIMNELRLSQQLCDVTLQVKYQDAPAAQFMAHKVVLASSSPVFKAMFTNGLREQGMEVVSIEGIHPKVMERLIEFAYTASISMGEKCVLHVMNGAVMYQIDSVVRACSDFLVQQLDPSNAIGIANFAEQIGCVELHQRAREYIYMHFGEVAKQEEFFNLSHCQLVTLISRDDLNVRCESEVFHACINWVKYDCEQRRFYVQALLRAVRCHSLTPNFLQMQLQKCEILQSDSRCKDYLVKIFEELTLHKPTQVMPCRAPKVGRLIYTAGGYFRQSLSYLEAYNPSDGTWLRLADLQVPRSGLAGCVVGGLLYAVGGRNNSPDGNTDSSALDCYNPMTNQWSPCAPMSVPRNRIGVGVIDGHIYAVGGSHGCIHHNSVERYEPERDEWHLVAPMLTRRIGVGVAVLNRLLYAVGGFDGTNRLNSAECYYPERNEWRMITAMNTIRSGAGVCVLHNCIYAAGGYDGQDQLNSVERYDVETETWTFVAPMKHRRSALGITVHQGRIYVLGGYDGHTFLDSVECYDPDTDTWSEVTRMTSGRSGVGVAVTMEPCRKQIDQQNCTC
Test [16] deals with T6, Endoribonuclease toxin MazF. The experiment in a line: MazF toxin RNase activators, dose response, biochemical, fluorescence, single-stranded RNA substrate, uHTS hits (AID 588481). It is filed as functional.
The target of test [17] is T7, Small ubiquitin-related modifier 1 (Homo sapiens, UniProt P63165). The experiment in a line: inhibitors of SUMO1 peptide binding, dose response, biochemical, fluorescence polarization, uHTS hits (AID 624382). Format: functional. The conditions noted are these: read-out: IC50_Mean.
T7 sequence (P63165 whole entry): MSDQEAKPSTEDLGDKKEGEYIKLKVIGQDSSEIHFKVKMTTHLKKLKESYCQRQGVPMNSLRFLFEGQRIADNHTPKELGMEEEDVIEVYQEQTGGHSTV
Test [18] has as its target T8, Polyadenylate-binding protein 1 (Homo sapiens, UniProt P11940). The experiment in a line: PABP poly(A) RNA binding inhibitors, primary screen, biochemical, fluorescence polarization, uHTS (AID 2014).
Test [19] concerns the target T9, Apoptotic protease-activating factor 1 (Homo sapiens, UniProt O14727).
T9 sequence (O14727 whole entry): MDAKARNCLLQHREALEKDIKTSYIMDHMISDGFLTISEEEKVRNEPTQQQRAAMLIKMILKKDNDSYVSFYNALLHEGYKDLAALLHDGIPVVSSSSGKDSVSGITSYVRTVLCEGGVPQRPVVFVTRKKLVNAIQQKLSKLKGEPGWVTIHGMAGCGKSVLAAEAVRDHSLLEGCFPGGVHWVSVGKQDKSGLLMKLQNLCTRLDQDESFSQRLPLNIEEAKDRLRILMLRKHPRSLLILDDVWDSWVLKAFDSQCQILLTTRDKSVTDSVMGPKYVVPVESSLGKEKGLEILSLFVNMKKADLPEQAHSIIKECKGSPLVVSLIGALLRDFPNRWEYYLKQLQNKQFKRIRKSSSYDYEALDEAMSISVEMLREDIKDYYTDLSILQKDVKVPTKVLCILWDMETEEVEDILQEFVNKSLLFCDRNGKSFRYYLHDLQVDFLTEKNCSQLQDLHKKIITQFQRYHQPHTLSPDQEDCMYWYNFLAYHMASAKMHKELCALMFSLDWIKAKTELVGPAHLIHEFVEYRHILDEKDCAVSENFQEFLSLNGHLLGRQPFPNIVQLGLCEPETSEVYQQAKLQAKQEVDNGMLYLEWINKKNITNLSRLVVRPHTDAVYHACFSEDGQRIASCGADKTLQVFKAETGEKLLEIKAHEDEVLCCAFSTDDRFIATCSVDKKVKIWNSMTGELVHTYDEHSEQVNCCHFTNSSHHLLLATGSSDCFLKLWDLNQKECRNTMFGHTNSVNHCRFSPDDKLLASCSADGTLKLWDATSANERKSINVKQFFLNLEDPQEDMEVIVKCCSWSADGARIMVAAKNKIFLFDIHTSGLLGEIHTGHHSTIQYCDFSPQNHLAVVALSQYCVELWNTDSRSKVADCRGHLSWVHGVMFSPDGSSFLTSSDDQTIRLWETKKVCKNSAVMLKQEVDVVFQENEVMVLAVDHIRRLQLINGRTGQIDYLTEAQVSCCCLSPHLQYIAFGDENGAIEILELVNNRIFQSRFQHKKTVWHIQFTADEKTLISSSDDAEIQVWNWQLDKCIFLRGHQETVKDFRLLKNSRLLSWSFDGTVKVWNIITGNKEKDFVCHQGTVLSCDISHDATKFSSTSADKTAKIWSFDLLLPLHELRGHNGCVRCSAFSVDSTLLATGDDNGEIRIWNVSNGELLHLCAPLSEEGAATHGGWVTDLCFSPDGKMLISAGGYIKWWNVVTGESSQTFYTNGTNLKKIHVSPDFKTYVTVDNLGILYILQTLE
The experiment in a line: activation of Apaf-1 mediated apoptosis – fluorescent, uHTS hits, dose response (AID 588554). Format: functional.

Test [20] concerns the target T10, Eukaryotic translation initiation factor 4H (Homo sapiens, UniProt Q15056). The experiment in a line: eIF4H inhibition in translation initiation, SAR follow-up (AID 435011). Format: functional.
For test [21], the target named is T8, Polyadenylate-binding protein 1. The experiment in a line: PABP inhibition in translation initiation, SAR follow-up (AID 435018). Format: functional.
Test [22] concerns the target T10, Eukaryotic translation initiation factor 4H. The experiment in a line: human eIF4H binding inhibitors, primary screen, translation initiation inhibitor project, biochemical, uHTS, fluorescence polarization (AID 2012).
The target in test [23] is T7, Small ubiquitin-related modifier 1. The experiment in a line: inhibitors of SUMO1 partner interactions, dose response, biochemical, FRET (AID 624383). The conditions noted are these: read-out: IC50_Mean. It is filed as functional.

Activity calls are given as the source filed them. Where only a bound is given, the exact number is not on record here.

T8 sequence (P11940 whole entry): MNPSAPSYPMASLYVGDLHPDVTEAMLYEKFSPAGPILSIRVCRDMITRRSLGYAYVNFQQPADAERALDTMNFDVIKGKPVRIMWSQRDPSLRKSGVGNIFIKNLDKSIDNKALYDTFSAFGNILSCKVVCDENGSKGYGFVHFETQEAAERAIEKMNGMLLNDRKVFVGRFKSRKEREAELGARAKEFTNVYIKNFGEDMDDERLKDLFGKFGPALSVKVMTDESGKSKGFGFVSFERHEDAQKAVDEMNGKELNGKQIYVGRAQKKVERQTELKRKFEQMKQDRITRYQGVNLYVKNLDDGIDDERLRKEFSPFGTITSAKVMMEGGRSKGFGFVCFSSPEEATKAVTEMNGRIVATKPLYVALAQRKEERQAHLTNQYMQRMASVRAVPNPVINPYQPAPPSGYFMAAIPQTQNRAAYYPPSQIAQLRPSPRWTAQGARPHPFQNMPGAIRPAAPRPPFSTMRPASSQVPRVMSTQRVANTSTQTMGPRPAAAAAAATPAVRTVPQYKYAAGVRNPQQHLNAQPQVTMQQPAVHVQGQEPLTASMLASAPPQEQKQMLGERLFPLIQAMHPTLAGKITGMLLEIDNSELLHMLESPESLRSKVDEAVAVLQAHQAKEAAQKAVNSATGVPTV
Sequence of UDP-galactopyranose mutase (P9WIQ1 whole entry): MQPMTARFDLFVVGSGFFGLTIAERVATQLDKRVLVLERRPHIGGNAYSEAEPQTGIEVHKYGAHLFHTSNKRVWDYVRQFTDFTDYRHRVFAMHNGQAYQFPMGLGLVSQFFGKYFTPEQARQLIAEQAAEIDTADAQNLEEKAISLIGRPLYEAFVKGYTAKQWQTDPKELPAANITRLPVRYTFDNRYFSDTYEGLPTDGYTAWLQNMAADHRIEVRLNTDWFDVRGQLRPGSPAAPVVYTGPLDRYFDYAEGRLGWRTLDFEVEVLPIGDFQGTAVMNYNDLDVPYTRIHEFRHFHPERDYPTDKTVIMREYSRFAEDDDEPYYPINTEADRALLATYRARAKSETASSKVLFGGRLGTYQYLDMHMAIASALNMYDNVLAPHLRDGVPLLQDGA
Sequence of Heat shock 70 kDa protein 1A (P0DMV8 whole entry): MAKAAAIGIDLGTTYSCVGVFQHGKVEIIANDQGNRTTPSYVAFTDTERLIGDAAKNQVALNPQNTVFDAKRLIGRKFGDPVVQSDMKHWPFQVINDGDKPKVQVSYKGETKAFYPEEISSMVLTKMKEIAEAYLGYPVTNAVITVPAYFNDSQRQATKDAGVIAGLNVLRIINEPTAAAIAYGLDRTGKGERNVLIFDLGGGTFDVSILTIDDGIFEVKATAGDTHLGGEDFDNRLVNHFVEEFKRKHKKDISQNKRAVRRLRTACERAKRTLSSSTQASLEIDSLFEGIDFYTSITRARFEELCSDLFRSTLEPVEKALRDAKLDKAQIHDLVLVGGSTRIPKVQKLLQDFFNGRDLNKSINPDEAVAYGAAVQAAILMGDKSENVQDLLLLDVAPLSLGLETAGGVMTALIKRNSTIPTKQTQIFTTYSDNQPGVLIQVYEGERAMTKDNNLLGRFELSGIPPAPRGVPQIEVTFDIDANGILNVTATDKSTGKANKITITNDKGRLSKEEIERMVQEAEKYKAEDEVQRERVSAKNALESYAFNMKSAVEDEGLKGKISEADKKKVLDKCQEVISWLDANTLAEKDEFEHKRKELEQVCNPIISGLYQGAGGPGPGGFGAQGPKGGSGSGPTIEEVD

Regarding `O=C(NCCc1ccc(F)cc1)c1cccc2c1C(=O)c1ccc(N3CCC(Cc4ccccc4)CC3)cc1S2(=O)=O`, the half-maximal activity concentration (AC50) in [1] is 47.8 µM (active).
For the compound `Cc1nc2ccccc2c(=O)n1/N=C/c1c(O)ccc2oc3c(c12)CCCC3`, the AC50 is 32.8 µM (active) in test [2] and 30 µM (active) in [7]. Moreover, the IC50 on Estrogen receptor was 29.2 µM (active). Further, the EC50 in [3] was 9.98 µM (active); in [4], 11.7 µM (active); in test [5] it was 11.1 µM (active). In addition, the CC50 in test [6] is 4.26 µM (active).
Take `Oc1c2nc3ccccc3c-2nc2n1CCS2`: the AC50 in the test with Candida albicans was 17.1 µM (active).
On to `O=C(O)C1Nc2c(Cl)cc(Cl)cc2C2C=CCC12` (centres undefined), for which the IC50 in test [8] was 53 µM (active); in [9] it was > 100 µM (not active); at Cysteine protease ATG4B it was 2.58 µM (active); in test [10], 63.5 µM (active); in test [11] it was 12.9 µM (active); in test [12] it was > 100 µM (not active). In addition, the IC50 at Phospholipase A2 is 9.08 µM (active); in [14] it was > 100 µM (not active). Further, the EC50 on Bcl-2-like protein 10 is 1.03 µM (active). The Ki in test [13] was 65.6 µM (inactive).
With `O=C(C1=C(O)C(=O)N(c2nccs2)C1c1ccccc1)c1cc2ccccc2o1` (centres undefined), the EC50 in [15] and in [16] was > 99 µM (inactive) throughout. Also, the AC50 at Keap1/Nrf2 was 1.15 µM (active).
With `COc1cc([N+](=O)[O-])ccc1NC(=O)COC(=O)c1ccc(NC(N)=O)cc1`, the IC50 in [17] was > 66.6 µM (inactive); in test [18], > 100 µM (inactive); in [20] it was 4.62 µM (active); in test [21], 76.2 µM (active); in [22] it was 14.6 µM (active); in test [23] it was 10.2 µM (active). Further, in test [19], the EC50 is 10.4 µM (active).

The AC50 is the concentration giving half of the maximal activity seen. A word on the EC50: it is the concentration at which the effect is half-maximal. Broadly, the CC50 is the concentration giving 50% cytotoxicity. By Ki is commonly meant the dissociation constant of the complex between target and ligand, obtained from inhibition or displacement.
